What was measured:
[1] = test system: erbB receptor phosphorylation (p185) in MCF10CA1 cells; test: p185 receptor phosphorylation western blot, MCF10CA1; format: cell-based, human; details: for exogenous NRG-induced p185 erbB receptor phosphorylation: AG1478 or 100 μg/ml Trastuzumab (24 h pre-treatment)
Description: Western blots and L6 muscle assays: P185 receptor phosphorylation of the three cell lines was measured by phosphotyrosine western blots after NRG treatment for 30 min on 3 day old cultures as described in WO 03/012045 and Li Q & Loeb J A (2001) J Biol Chem; 276:38068-75. […] The media was discarded and phosphotyrosine western blots were performed as above. The membranes were stripped and reprobed with polyclonal rabbit erbB2 for the detection of overall erbB2 protein that was used for quantitation.
(§1) After 2 days, the Optimem I conditioned media was concentrated by Centricon at 4° C. 40 μl of IgB4 conditioned media or 10 μM of tyrosine kinase inhibitor AG1478 were combined with […] 1 nM NRG in MCF10A/AT media for 15 min at room temperature before being added to MCF10CA1 cells for 30 min treatment. […] The amount of each antagonist was determined empirically based on its ability to block NRG-induced activation of L6 cells.

[2] = test system: MCF10CA1 human breast cancer cells; test: Cell proliferation assay, MCF10CA1; format: cell-based; details: IgB4 conditioned media, 10 μM AG1478 or 100 μg/ml Trastuzumab; for MCF10CA1 proliferation with exogenous NRG: 1 nM NRG
Description: Cell proliferation assays: All three breast epithelial cell lines were plated at 5000 cells/well in 48 well plates in regular MCF10A/AT or MCF10CA1 media. After incubation for 3 days, 1 nM NRG in MCF10A/AT media or just MCF10A/AT media alone were applied to the cells for another 24 hours followed by washing them with culture media and then counting cell numbers using an hemocytometer on the 4th, 5th, 6th, 7th and 8th day.
as §1

[3] = test system: erbB phosphorylation (p185) in L6 muscle cells; test: NRG1-induced erbB phosphorylation after reducing endogenous HSPG sulfation; format: cell-based; details: chlorate 48 hours
Description: Cell Cultures and Western Blots for p185 phosphorylation—L6 Cells were used to quantify erbB receptor phosphotyrosine (p185) as described (WO 03/012045; Li & Loeb, supra). Cells were plated at 50,000 cells/well and grown for 8 days. Chlorate was filter sterilized and incubated with L6 cells for 2 days prior to the assay. Inhibition assays of p185 were performed by pre-incubating 75 pM of IgEGF NRG1 and various concentrations of the heparins at room temp for 20 minutes. 150 μL of this mixture was then applied to 8 day-old L6 cells for 45 minutes at 37° C. in […]. The medium was aspirated, and the cells were solubilized in 50 μL sample buffer and boiled for 5 minutes as described previously (WO 03/012045; Li & Loeb, supra) 15 μL of this was resolved on a 5% denaturing polyacrylamide gel. Phosphorylated forms of the erbB receptors (p185) were detected by western blot analysis using the phosphotyrosine monoclonal antibody 4G10 (Upstate) and then verified and quantified by reprobing with a mixture of antibodies against erbB2 (Neomarkers Ab-17) and erbB3 (Neomarkers Ab-6). Quantitation was performed by determining the ratio of p185/(erbB2+erbB3) using Metamorph Imaging System (Universal Imaging Corp) on non-saturated images as described (Esper, R M & Loeb, J A (2004) J Neurosci 24:6218-27) […]

NRG1 = molecular target: T1, NRG1 (Homo sapiens, UniProt Q02297); test: Gel mobility shift assay (GMSA); format: binding; details: 35 ng NRG1, 20 minutes; heparins at 0, 1, 10, 100 μg/ml
T1 construct: the intact IgEGF form of NRG1 corresponds to amino acids 14-246; purchased R&D (Minneapolis Minn.)
T1 sequence (Q02297 14-246 isoform Q02297-6): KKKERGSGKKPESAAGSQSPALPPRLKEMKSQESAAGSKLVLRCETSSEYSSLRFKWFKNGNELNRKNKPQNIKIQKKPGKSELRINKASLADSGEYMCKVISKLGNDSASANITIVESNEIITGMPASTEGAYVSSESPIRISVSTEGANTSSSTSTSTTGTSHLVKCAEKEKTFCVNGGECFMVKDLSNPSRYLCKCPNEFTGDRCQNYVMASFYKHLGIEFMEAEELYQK
Description: Gel Mobility Shift Assay (GMSA)—NRG1 alone, or NRG1 plus various heparins at various concentrations were incubated with binding buffer (2.7 mM KCl, 4.3 mM Na2HPO4, 10 mM MgCl2, 1.4 mM KH2PO4, 12% glycerol, 1 mM DTT.) for 20 minutes and run on a 6% (29:1 acrylamide:bis) non-denaturing gel (10 mM Tris (pH 7.4), 1 mM EDTA) for 20 minutes at 200 V as described (Wu, Z L et al. (2002) FASEB J 16, 539-45; Wu, Z L et al. (2003) J Biol Chem 278:17121-29). […] However, band resolution was sharper at pH 8.0 and was therefore used for our studies here. Protein was transferred to a polyvinylidene fluoride membrane (Millipore corp.) for 1 hr at 100V. NRG1 bands were detected by western blot analysis using a polyclonal rabbit antiserum (AD03) developed against the IgEGF polypeptide (Assay Designs Inc.). The filters were then probed with a goat anti-rabbit antibody coupled to peroxidase (Chemicon), exposed to X-blue film (Eastman Kodak Co.) after treatment with chemiluminescence reagents, and bands were quantified as above.

[4] = test system: NRG1-induced erbB receptor phosphorylation (p185) in L6 cells; test: Inhibition of NRG1-induced p185 by heparins in L6 cells; format: cell-based; details: for inhibition of NRG1-induced erbB receptor phosphorylation (p185): 75 pM IgEGF NRG1 pre-incubated with heparin 20 minutes, L6 cells 45 minutes
Description: Cell Cultures and Western Blots for p185 phosphorylation—L6 Cells were used to quantify erbB receptor phosphotyrosine (p185) as described (WO 03/012045; Li & Loeb, supra). Cells were plated at 50,000 cells/well and grown for 8 days. Chlorate was filter sterilized and incubated with L6 cells for 2 days prior to the assay. Inhibition assays of p185 were performed by pre-incubating 75 pM of IgEGF NRG1 and various concentrations of the heparins at room temp for 20 minutes. 150 μL of this mixture was then applied to 8 day-old L6 cells for 45 minutes at 37° C. in […]. The medium was aspirated, and the cells were solubilized in 50 μL sample buffer and boiled for 5 minutes as described previously (WO 03/012045; Li & Loeb, supra) 15 μL of this was resolved on a 5% denaturing polyacrylamide gel. Phosphorylated forms of the erbB receptors (p185) were detected by western blot analysis using the phosphotyrosine monoclonal antibody 4G10 (Upstate) and then verified and quantified by reprobing with a mixture of antibodies against erbB2 (Neomarkers Ab-17) and erbB3 (Neomarkers Ab-6). Quantitation was performed by determining the ratio of p185/(erbB2+erbB3) using Metamorph Imaging System (Universal Imaging Corp) on non-saturated images as described (Esper, R M & Loeb, J A (2004) J Neurosci 24:6218-27)

[5] = 1 nM NRG, 30 min, IgB4 conditioned media

## COc1cc2ncnc(Nc3cccc(Cl)c3)c2cc1OC [AG1478, reference compound]
[1]; 1 nM NRG, 30 min
  EGF receptor phosphorylation (lower band): reducing both p185 (erbB2/3, upper band) and EGF receptor phosphorylation (lower band) in a dose dependent manner
[1]; [5]
  exogenous NRG-induced p185 erbB receptor phosphorylation: blocked NRG-induced erbB signaling
[2]
  MCF10CA1 proliferation with exogenous NRG: reduced the growth rate
  MCF10CA1 growth rate without exogenous NRG: reduced the growth rate

## [O-][Cl+2]([O-])O [chlorate, Sodium chlorate]
[3]; EGF form lacking the heparin-binding domain
  reduction of receptor phosphorylation, EGF form: no reduction
[3]; full-length heparin-binding NRG1 (IgEGF)
  reduction of receptor phosphorylation, IgEGF NRG1: 53%

## De-2O sulfated heparin
NRG1
  shift of NRG1 mobility (NRG1 binding): shifted NRG1 better than De-N sulfated heparin but less than fully sulfated heparin
[4]
  inhibition of NRG1-induced erbB receptor phosphorylation (p185): intermediate effects

## De-6O sulfated heparin
NRG1
  shift of NRG1 mobility (NRG1 binding): shifted NRG1 better than De-N sulfated heparin but less than fully sulfated heparin
[4]
  inhibition of NRG1-induced erbB receptor phosphorylation (p185): intermediate effects

## De-N sulfated heparin
NRG1
  shift of NRG1 mobility (NRG1 binding): did not shift NRG1
[4]
  inhibition of NRG1-induced erbB receptor phosphorylation (p185): little inhibition even at 100 μg/ml
[4]; 1 μg/ml
  effect on receptor phosphorylation at low concentration: modest stimulatory effect

## heparin
NRG1
  shift of NRG1 mobility (NRG1 binding): shift NRG1 in a dose-dependent manner
[4]
  inhibition of NRG1-induced erbB receptor phosphorylation (p185): inhibited by fully-sulfated heparin in a dose-dependent manner

B1: IgB4: soluble NRG antagonist: ECD of erbB4 receptor fused to Fc portion of human IgG1 (protein)
chain: QSVCAGTENKLSSLSDLEQQYRALRKYYENCEVVMGNLEITSIEHNRDLSFLRSVREVTGYVLVALNQFRYLPLENLRIIRGTKLYEDRYALAIFLNYRKDGNFGLQELGLKNLTEILNGGVYVDQNKFLCYADTIHWQDIVRNPWPSNLTLVSTNGSSGCGRCHKSCTGRCWGPTENHCQTLTRTVCAEQCDGRCYGPYVSDCCHRECAGGCSGPKDTDCFACMNFNDSGACVTQCPQTFVYNPTTFQLEHNFNAKYTYGAFCVKKCPHNFVVDSSSCVRACPSSKMEVEENGIKMCKPCTDICPKACDGIGTGSLMSAQTVDSSNIDKFINCTKINGNLIFLVTGIHGDPYNAIEAIDPEKLNVFRTVREITGFLNIQSWPPNMTDFSVFSNLVTIGGRVLYSGLSLLILKQQGITSLQFQSLKEISAGNIYITDNSNLCYYHTINWTTLFSTINQRIVIRDNRKAENCTAEGMVCNHLCSSDGCWGPGPDQCLSCRRFSRGRICIESCNLYDGEFREFENGSICVECDPQCEKMEDGLLTCHGPGPDNCTKCSHFKDGPNCVEKCPDGLQGANSFIFKYADPDRECHPCHPNCTQGCNGPTSHDCIYYPWTGHSTLPQHARTP
modifications: left off: a dimerising Fc or GST
notes: soluble NRG antagonist: ECD of erbB4 receptor fused to Fc portion of human IgG1
[1]; [5]
  exogenous NRG-induced p185 erbB receptor phosphorylation: effectively blocked
[1]; no exogenous NRG, IgB4 conditioned media, 10 μM AG1478 or 100 μg/ml Trastuzumab (24 h pre-treatment)
  basal p185 erbB receptor phosphorylation: effectively blocked
[2]
  MCF10CA1 proliferation with exogenous NRG: blocked MCF10CAL cell proliferation induced by exogenous NRG treatment
  MCF10CA1 growth rate without exogenous NRG: significantly reduced the baseline growth rate

From patent US7994123B2, “Hybrid proteins with ErbB4 extracellular domain and neuregulin heparin-binding domain for targeting” (Wayne State University, priority 2004, dated 2011)
